Results as given in US4275068A, “Lipid lowering alkylene glycols and ester derivatives thereof” (Siegfried AG, priority 1977, dated 1981).
Structures can show the parent of a compound that is named as a salt.

Tests used:
[1] = tested on: cholesterol content of the blood; assay: Cholesterol-lowering (dosis required for a 25% reduction of the cholesterol content of the blood); type: in vivo; conditions: dosis for 25% reduction of cholesterol content of the blood; mg/kg body weight; read-out: Cholesterol ED 25
Text: The ED25 value, that is, the dosis in mg/kg body weight required for a 25% reduction of the cholesterol content of the blood, is 151 for clofibrate but better, i.e. lower, with all compounds (1) tested so far.

[2] = Toxicity on mice (LD50); conditions: mouse
Text: Toxicity values and activities of the above compounds (1) were investigated by animal tests in accordance with conventional methods as described, for example, in the above mentioned publications, and compared with the corresponding data of clofibrate, the well known cholesterol-lowering agent: […]

[3] = tested on: triglyceride content of the blood; assay: Triglyceride-lowering (dosis required for a 25% reduction of the triglyceride content of the blood); type: in vivo; conditions: dosis for 25% reduction of triglyceride content of the blood, mg/kg body weight; for ED25: read-out: Triglyceride ED 25
Text: The ED25 value, in this instance the dosis in mg/kg body weight required for a 25% reduction of the triglyceride content of the blood, is better, i.e. lower, with all compounds (1) tested so far than the corresponding activity value of 22 of clofibrate.

What does the source list for `CCOC(=O)C(C)(C)Oc1ccc(Cl)cc1` [Clofibrate, reference compound]?
ED25 [1]: 151 mg/kg; LD50 ([2]; in vivo): 2180 mg/kg; Triglyceride ED 25 [3]: 222 mg/kg; Triglyceride ED 25 ([3]; listed as clofibrate): 22 mg/kg

Which results are given for `OCCOc1ccc(Cc2ccc(Cl)cc2)cc1` [Example 1, 2-[4-(4'-chlorobenzyl)-phenoxy]-ethanol]?
ED25 [1]: 80 mg/kg; LD50 [2]: 3000 mg/kg; ED25 [3]: < 50 mg/kg

With `CCC(C)(CO)Oc1ccc(Cc2ccc(Cl)cc2)cc1` (stereo not drawn) [Example 2, 2-methyl-2-[4-(4'-chlorobenzyl)-phenoxy]-butanol] as the molecule, how does the ED25 [1] read?
The ED25 was 80 mg/kg.

What about the LD50 [2] of the same molecule?
Its LD50 is 2960 mg/kg.

What about the ED25 [3] of the same molecule?
Its ED25 is 14 mg/kg.

Which results are given for `OCC(Oc1ccc(Cc2ccc(Cl)cc2)cc1)c1ccccc1` (stereo not drawn) [Example 3, 2-phenyl-2-[4-(4'-chlorobenzyl)-phenoxy]-ethanol]?
ED25 [1]: > 100 mg/kg; LD50 [2]: > 3000 mg/kg

For `O=C(OCCOc1ccc(Cc2ccc(Cl)cc2)cc1)c1cccnc1` [Example 4, Ester of nicotinic acid and 2-[4-(4'-chlorobenzyl)-phenoxy]-ethanol], which ED25 [1] is on record?
Its ED25 is 41 mg/kg.

What about the LD50 [2] of the same molecule?
The LD50 was over 3000 mg/kg.

What about the ED25 [3] of the same molecule?
Its ED25 is 70 mg/kg.

For `CCC(C)(COC(=O)c1cccnc1)Oc1ccc(Cc2ccc(Cl)cc2)cc1` (stereo not drawn) [Example 5, Hydrochloride of nicotinic acid ester of 2-methyl-2-[4-(4'-chlorobenzyl)-phenoxy]-butanol], which ED25 [1] is on record?
Its ED25 is 30 mg/kg.

And the LD50 [2]?
Its LD50 is over 3000 mg/kg.

What about the ED25 [3] of the same molecule?
The ED25 was 40 mg/kg.

With `CC(=O)Oc1ccccc1C(=O)OCCOc1ccc(Cc2ccc(Cl)cc2)cc1` [Example 6, Acetylsalicylic acid ester of 2-[4-(4'-chlorobenzyl)-phenoxy]-ethanol] as the molecule, how does the ED25 [1] read?
Its ED25 is 70 mg/kg.

What about the LD50 [2] of the same molecule?
Its LD50 is over 3000 mg/kg.

And the ED25 [3]?
Its ED25 is over 100 mg/kg.
